test system: SK-MEL-5 TRPM1-promoter luciferase reporter, 24 h; experiment: reducers of TRPM1 reporter luminescence, concentration series – cell-based, SK-MEL-5, cherry-picked, set 4, MITF inhibitor project, dose response (AID 493102);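 further: actives lower the luciferase signal so the potency reflects inhibition of reporter expression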

| Structure (SMILES) | AC50 |
| --- | --- |
| O=C(CCl)Nc1ccc(-c2ccccc2)cc1 | 7.3 µM |
| Cc1ccc(C(=O)N/C(=C\c2ccc(-c3ccccc3[N+](=O)[O-])o2)C(=O)NCCCN(C)C)cc1 | 3.28 µM |
| COCCN(C(=O)CCl)C(C(=O)NC1CCCCC1)c1ccccc1C (configuration not stated) | 17.8 µM |
| CCC(=O)N1CCN(c2ccc(NC(=O)c3ccc([N+](=O)[O-])o3)cc2Cl)CC1 | 6.08 µM |
| O=C1CN(C(=O)Cn2ncc(Cl)c(Cl)c2=O)c2ccccc2N1 | 8.67 µM |
| CCN(CC)S(=O)(=O)c1ccc(N2CCCC2)c(NC(=O)c2ccc([N+](=O)[O-])o2)c1 | 3.18 µM |
| COc1ccc(C(=O)/C=C/C(=O)N(CC(=O)NC2CCCCC2)Cc2cccs2)c(O)c1 | 5.53 µM |
| O=C(N/N=C/c1cc(Br)ccc1O)c1ccncc1 | 9.36 µM |
| CC1(C)CC(=O)C=C(NC2=CC3OC(c4ccccc4)OCC3OC2=O)C1 (configuration not stated) | 7.71 µM |
| CCn1c(=O)c([N+](=O)[O-])c(Cl)c2ccccc21 | 7.2 µM |
| Nc1nnnn1/N=C/C(Br)=C/c1ccccc1 | 5.44 µM |
| Cc1ccc2c(C(=O)CCl)c(C)[nH]c2c1 | 8.17 µM |
| CCN(CC)c1ccc(/C=N/NC(=O)c2cccc(S(=O)(=O)N3CCOCC3)c2)c(O)c1 | 1.52 µM |
| COc1cc(SC)ccc1C(=O)Nc1ccc(Br)cn1 | 7.36 µM |
| COc1cc(SC)ccc1C(=O)Nc1ncc(C)s1 | 3.65 µM |
| O=C(/C=C/Nc1ccccc1Br)c1ccccn1 | 0.899 µM |
| O=C1c2ccccc2C(=O)c2c1ncn2-c1ccccc1 | 7.33 µM |
| O=C(c1ccccc1)C(CN1CCCC1)c1ccccc1 (configuration not stated) | 5.33 µM |
| CC(=O)N(\C=C/C=C/C=C1\Sc2ccccc2C1=O)c1ccccc1 | 8 µM |
| O=C(Nc1ccc(S(=O)(=O)NC2=NCCCCC2)cc1)c1ccc([N+](=O)[O-])s1 | 5.11 µM |
| Cc1ccc(C(C)C)c(OCc2nn(CC(=O)c3ccc(Cl)cc3)c3[n+]2CCCCC3)c1 | 9.83 µM |
| C=CC[n+]1c(-c2ccc(C)cc2)csc1Nc1ccc(NC(C)=O)cc1 | 1.57 µM |
| COc1ccc(-c2cc3c(nn2)-c2ccccc2C3=O)cc1 | 4.22 µM |

| Structure (SMILES) | AC50 |
| --- | --- |
| CCOC(=O)c1cc([N+](=O)[O-])c([N+](=O)[O-])cc1NC(C)=O | 24.2 µM |
| CCOCCCNC(=O)/C(C#N)=C/c1ccc(Cl)c([N+](=O)[O-])c1 | 7.38 µM |
| CC1=NOC(=O)/C1=C\c1ccc(-c2cccc(Cl)c2)o1 | 5.36 µM |
| O=C(O)c1ccc(N/N=C/c2ccc(OC(=O)c3cccc(Cl)c3)cc2)cc1 | 3.21 µM |
| COc1ccc(NS(=O)(=O)c2cc(NC(=O)CNC(=O)c3cccc(OC)c3)ccc2C)cc1 | 11 µM |
| Cc1nc2ccccc2n1/N=C/c1ccc([N+](=O)[O-])s1 | 3.51 µM |
| CCOc1ccc(OCc2ccc(C(=O)N/N=C(\C)c3ccccn3)cc2)cc1 | 3.64 µM |
| CCN1c2ccccc2NC2C1C(C(C)=O)C(=O)N2c1ccc(Cl)cc1 (configuration not stated) | 12.7 µM |
| Cn1nnnc1Sc1ncnc2scc(-c3ccc(C#N)cc3)c12 | 4.98 µM |
| COC(=O)C1=C(C)N(Cc2ccccc2)C(=NCc2ccccc2)N[C@H]1c1ccccc1 | 18 µM |
| COC1=C(c2ccccc2)C(=O)c2ccccc2C1=O | 9.05 µM |
| CN(C)CCCN(C(=O)c1ccc(Cl)s1)c1nc2cc3c(cc2s1)OCO3 | 22.9 µM |
| CC1CCN(Cc2nc(-c3ccc(Cl)cc3)no2)CC1 | 7.62 µM |
| CC1CCC(C(C)C)C(OC(=O)Cn2c(-c3ccc(Br)cc3)[n+](C)c3ccccc32)C1 (configuration not stated) | 7.12 µM |
| O=C1C(Cl)=C(Nc2ccccc2)C(=O)c2ccccc21 | 2.88 µM |
| O=C(N/N=C/c1ccc([N+](=O)[O-])s1)C(O)c1ccccc1 (configuration not stated) | 4.48 µM |
| O=[N+]([O-])c1cc(S(=O)(=O)N2CCCCCC2)ccc1F | 9.53 µM |
| CCOc1ccc(-c2noc(CCC(=O)O)n2)cc1 | 2.61 µM |
| CC1CCC(C(C)C)C(OC(=O)Cn2c(-c3ccccc3)[n+](C)c3ccccc32)C1 (configuration not stated) | 2.37 µM |
| CN(C(=O)/C=C/c1ccc([N+](=O)[O-])s1)c1ccccc1 | 9.11 µM |
| CN(Cc1ccccc1)C1=CC(=[N+]2CCCC2)CC(C)(C)C1 | 1.55 µM |
| O=C(CCl)Nc1ccc(Sc2ccc(NC(=O)CCl)cc2)cc1 | 5.98 µM |
| COc1ccc(C(=O)/C=C/Nc2ccccn2)cc1 | 3.72 µM |

| Structure (SMILES) | AC50 |
| --- | --- |
| COc1cccc2sc(N(CCCN(C)C)C(=O)C(c3ccccc3)c3ccccc3)nc12 | 15.1 µM |
| CC(=NNC(=S)N1CCN(c2ccccn2)CC1)c1nccs1 | 0.681 µM |
| CCN1CCc2c(sc(NC(=O)c3ccc(S(=O)(=O)N4CCCCCC4)cc3)c2C(=O)NC)C1 | 16.6 µM |
| COC(=O)CSC1=C(C#N)C(=O)NC(c2ccccc2)S1 (configuration not stated) | 7.06 µM |
| N=c1n(CC(=O)c2ccc([N+](=O)[O-])cc2)c2ccccc2n1Cc1ccccc1Cl | 4.03 µM |
| COc1cc(/C=N/NS(=O)(=O)c2ccc3ccccc3c2)ccc1OCc1ccc(C(=O)O)cc1 | 4.78 µM |
| Cc1ccccc1NC(=O)Cc1nc(COC(=O)c2ccc(S(C)(=O)=O)c([N+](=O)[O-])c2)cs1 | 12.8 µM |
| O=c1c(Cl)c(Cl)cnn1-c1ccccc1 | 9.54 µM |
| O=C1NC(=S)NC(=O)C1=Cc1cccn1-c1ccc(O)cc1 | 11.4 µM |
| O=[N+]([O-])c1ccc(/C=N/Nc2ccnc3cc(Cl)ccc23)o1 | 15.3 µM |
| Cn1cc(C(=O)N/N=C/c2c(O)ccc3ccccc23)ccc1=O | 2.55 µM |
| O=[N+]([O-])c1ccc(-n2nnnc2-c2ccccc2)c([N+](=O)[O-])c1 | 7.37 µM |
| COc1ccc(/C=C2\SC(=O)N(CCCC(=O)Nc3cc(Cl)ccc3C(=O)O)C2=O)cc1 | 0.528 µM |
| CC(C)(c1ccccc1)c1ccc(OCC(O)CNC2CCN(Cc3ccccc3)CC2)cc1 (configuration not stated) | 7.94 µM |
| O=[N+]([O-])c1ccc(/C=N/N=C/c2ccc([N+](=O)[O-])o2)o1 | 9.36 µM |
| CCOC(=O)C(=Cc1ccc(-n2ccnc2)cc1)C(=O)OCC | 9.38 µM |
| Cc1cc(C)c2c(N)c(C(=O)Nc3ncc(C)s3)sc2n1 | 1.09 µM |
| COC(=O)c1ccc(-n2c(C)cc(C(=O)CCl)c2C)cc1 | 7.46 µM |
| O=c1c(Cl)c(Cl)cnn1Cc1ccc(F)cc1 | 8.9 µM |
| CC(=O)c1ccc(Sc2nnnn2-c2ccccc2)c([N+](=O)[O-])c1 | 7.82 µM |
| O=C(CCl)Nc1cccc(Oc2ccccc2)c1 | 8.07 µM |
| CCN1CCN(C2=C(NS(=O)(=O)c3ccc(Br)cc3)C(=O)c3ccccc3C2=O)CC1 | 5.71 µM |
| CCCOc1ccc(C(=O)C(CN2CCCC2)c2ccccc2)cc1 (configuration not stated) | 8.62 µM |

| Structure (SMILES) | AC50 |
| --- | --- |
| CCOC(=O)c1[nH]cnc1N=Nc1c(O)ccc2ccccc12 | 3.76 µM |
| O=C(CCl)N(c1ccccc1)c1c[nH]c2ccccc12 | 5.08 µM |
| CCOc1ccc(-c2cc(C)[n+](CCO)c(-c3ccc(OCC)cc3)c2)cc1 | 11.1 µM |
| CC(C)[C@H](NC(=O)OC(C)(C)C)c1nnc(S(=O)(=O)Cc2c(F)cccc2Cl)o1 | 11.6 µM |
| Cc1c(N=C2C=CC(=O)c3ccccc32)c(=O)n(-c2ccccc2)n1C | 5.26 µM |
| CC1CCC(C(C)C)C(OC(=O)Cn2c(-c3ccc(Cl)cc3)[n+](C)c3ccccc32)C1 (configuration not stated) | 6.29 µM |
| O=C(Nc1ccc(-c2nc3ncccc3o2)cc1)c1ccc([N+](=O)[O-])o1 | 3.63 µM |
| CC(C)(C)NC(=O)CCN(/N=C/c1ccc([N+](=O)[O-])o1)C1=NS(=O)(=O)c2ccccc21 | 7.18 µM |
| O=C(/C=C/c1cccc([N+](=O)[O-])c1)c1cccs1 | 15.3 µM |
| CCCc1ccc(-c2ccc(/C=C/C(=O)O)cc2)nc1 | 0.039 µM |
| CCOC(=O)Cn1cc([N+](=O)[O-])nc1[N+](=O)[O-] | 29.5 µM |
| C/C(=C\c1ccc(N(C)C)cc1)[N+](=O)[O-] | 13.1 µM |
| O=C(NCc1ccco1)c1nc2c(nnn2Cc2ccccc2Cl)c(=O)[nH]1 | 14.4 µM |
| C1CCC(C(CC2CCCCN2)C2CCCCC2)CC1 (configuration not stated) | 18.8 µM |
| COc1cc2c(cc1OC)C(SC)=NC1(CCCC1)C2 | 9.44 µM |
| C=C1C(=O)O[C@@H]2[C@H]1[C@@H](OC(=O)/C(C)=C/C)C/C(C)=C\C(=O)/C=C(\C)[C@@H]2O | 7.07 µM |
| Cn1cccc1C(=O)NC(=O)COC(=O)c1ccc(S(C)(=O)=O)c([N+](=O)[O-])c1 | 9.23 µM |
| CC(=O)Nc1ccc(S(=O)(=O)NC2=C(N3CCN(C)CC3)C(=O)c3ccccc3C2=O)cc1 | 3.65 µM |
| COc1cccc(NC(=O)Nc2cccc(C(=O)O)c2)c1 | 2.37 µM |
| Cc1cc(N2CCOCC2)ccc1/C=C\[N+](=O)[O-] | 22.5 µM |
| C=C1C(=O)C=C[C@]2(C)C[C@@H]3OC(=O)[C@](C)(O)[C@H]3C[C@@H]12 | 10.3 µM |
| C=CCC(Nc1ccccc1)C12C=CC(O1)C(C(=O)OC)=C2C(=O)OC (configuration not stated) | 11.7 µM |
| COc1ccccc1-c1cc(C(F)(F)F)nc(S(C)(=O)=O)n1 | 6.81 µM |

| Structure (SMILES) | AC50 |
| --- | --- |
| CCS(=O)(=O)c1ccc(N=Nc2ccc(O)c3ncccc23)c(OC)c1 | 9.23 µM |
| CC(C)CN=C(NS(=O)(=O)c1ccccc1)C(Cl)(Cl)Cl | 11.1 µM |
| O=C(c1ccccc1)c1cc(Cl)ccc1N1C(=O)C=CC1=O | 11.9 µM |
| O=C1c2cc(F)ccc2-n2c1nc1ccccc1c2=O | 1.05 µM |
| COC1=C(Nc2ccc(O)cc2)C(=O)c2ccccc2C1=O | 5.14 µM |
| COc1cc(NC(=O)c2[nH]cnc2C(N)=O)cc(C(=O)Nc2cccc(C(F)(F)F)c2)c1 | 10.9 µM |
| CC1CCCCC1NC(=O)/C(C#N)=C/C=C/c1ccccc1[N+](=O)[O-] (configuration not stated) | 7.92 µM |
| CNC(=O)COC(=O)c1ccccc1C(=O)c1ccc(Cl)c([N+](=O)[O-])c1 | 9.77 µM |
| O=C(c1ccc(S(=O)(=O)Cc2ccccc2Cl)c([N+](=O)[O-])c1)N1CCN(c2ccccn2)CC1 | 9.49 µM |
| O=S(=O)(CC(CN1CCCCC1)N1CCCCC1)c1ccc2ccccc2c1 (configuration not stated) | 12.5 µM |
| O=c1c2ccccc2cnn1CCOc1ccccc1 | 7.2 µM |
| COCCn1c(C)cc(C(=O)CSc2nnc(C)s2)c1C | 3.04 µM |
| COc1ccc(-c2c[n+](CC(=O)OC3CC(C)CCC3C(C)C)c3n2CCC3)cc1 (configuration not stated) | 4.87 µM |
| Cc1oc(-c2ccc(Cl)cc2)nc1CN1CCC(C(=O)NCCCN2CCCC(C)C2)CC1 (configuration not stated) | 13.2 µM |
| CCCCCCCNC(=O)C1(CC2CC(c3ccc(Cl)cc3)=NO2)CCNCC1 (configuration not stated) | 14 µM |
| Cc1c(C#N)c(NC(=O)CCl)n(Cc2ccc(F)cc2)c1C | 7.16 µM |
| O=C(CNC(=O)c1ccccc1)N/N=C/c1ccc([N+](=O)[O-])s1 | 5.34 µM |
| O=C(Nc1ccc(Nc2ccncc2)cc1)c1ccc([N+](=O)[O-])cc1 | 7.22 µM |
| CN1C/C(=C/c2cccnc2)C(=O)/C(=C/c2cccnc2)C1 | 5.31 µM |
| O=C(CCl)N(c1ccccc1)C1CCCCC1 | 4.51 µM |

From PubChem BioAssay AID493102 (Broad Institute, 2011)
